Test results from PubChem BioAssay (NCI).
“And” between values parts separate entries of the source, which are not always exact repeats. Equal entries are not always repeated.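 Dose response: 5 concentrations. Exposure: 48 h. Format: 96-well plates. Endpoint: linear interpolation; highest concentration if not reached. The concentration for 50% growth inhibition is given as GI50. TGI denotes the concentration required for complete inhibition of growth.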

What was measured:
Assay in all cases: NCI anticancer screen, dose series, 48 h
A549 NSCLC = test system: A549 NSCLC
BT-549 breast = test system: BT-549 breast
LOX IMVI melanoma = test system: LOX IMVI melanoma
MALME-3M melanoma = test system: MALME-3M melanoma
NCI-H23 lung = test system: NCI-H23 lung
NCI-H460 lung = test system: NCI-H460 lung
SF-295 CNS = test system: SF-295 CNS
SK-OV-3 ovarian = test system: SK-OV-3 ovarian
SW-620 colon = test system: SW-620 colon
UACC-62 melanoma = test system: UACC-62 melanoma

Structure (SMILES)	GI50 (A549 NSCLC)	TGI (A549 NSCLC)	GI50 (BT-549 breast)	TGI (BT-549 breast)	GI50 (LOX IMVI melanoma)	TGI (LOX IMVI melanoma)	GI50 (MALME-3M melanoma)	TGI (MALME-3M melanoma)	GI50 (NCI-H23 lung)	TGI (NCI-H23 lung) [µM]	GI50 (NCI-H460 lung)	TGI (NCI-H460 lung) [µM]	GI50 (SF-295 CNS)	TGI (SF-295 CNS)	GI50 (SK-OV-3 ovarian)	TGI (SK-OV-3 ovarian)	GI50 (SW-620 colon)	TGI (SW-620 colon)	GI50 (UACC-62 melanoma)	TGI (UACC-62 melanoma)
CCn1c(-c2nonc2N)nc2c(C#CC(C)(C)O)ncc(OC[C@H]3CCCNC3)c21	15.6 µM	62.3 µM	6.85 µM	28.6 µM	17.8 µM	45.6 µM	13.4 µM	30.1 µM	23.5 µM	> 96	10.6 µM	28.5	0.794 µM	22 µM	0.866 µM	> 82.6 µM	11.1 µM	> 100 µM	12.9 µM	28.2 µM
CC(=O)O[C@H]1[C@@H]2OC(=O)C(CSc3ccccc3)[C@@H]2C[C@H]2O[C@]2(C)CC/C=C(\C)CCC[C@@H]1C (some centres undefined)	4.34 µM	21.4 µM	1.98 µM	8.84 µM	3.22 µM	13.9 µM	4.05 µM	19.5 µM	3.51 µM	22.2	4.4 µM	19.3	3.73 µM	34.6 µM	13.6 µM	57 µM	2.22 µM	4.92 µM	4.65 µM	14.8 µM
CCN(CC)C(=S)SCN1C(=O)c2ccccc2S1(=O)=O	41.2 µM	> 100 µM	63.4 µM	> 100 µM	29.5 µM	> 66.8 µM	> 48.7 µM	97.6 µM	45.5 µM	> 91.1	0.928 µM	> 100	> 67.2 µM	> 100 µM	> 100 µM	> 100 µM	43 µM	> 100 µM	3.02 µM	
CCOC(=O)c1cc(-c2ccccc2)[nH]c1N/N=C/c1ccc(Cl)cc1	81.5 µM	> 100 µM	46.8 µM	> 100 µM	62.1 µM	> 100 µM	> 100 µM	> 100 µM	79.1 µM	> 100	58.1 µM	> 100	> 100 µM	> 100 µM	> 100 µM	> 100 µM	> 100 µM	> 100 µM	49.7 µM	> 100 µM
COC(=O)c1cc2c3ccccc3[nH]c2c2sccc12	25.5 µM	> 100 µM	20.2 µM	57 µM	5.68 µM	24.8 µM	29.3 µM	62.7 µM	33.8 µM	> 100	20.1 µM	43.8	8.57 µM	48.7 µM	34.1 µM	> 100 µM	35.1 µM	> 100 µM	22.3 µM	> 100 µM
O=[N+]([O-])c1cc(C(F)(F)F)ccc1Sc1ccc(C(F)(F)F)cc1[N+](=O)[O-]	24.9 µM	> 100 µM	7.52 µM	> 100 µM	3.37 µM	> 100 µM	17.5 µM	> 100 µM	4.62 µM	> 100	19 µM	> 100	31.4 µM	> 100 µM	7.65 µM	> 100 µM	3.31 µM	> 100 µM	5.27 µM	> 100 µM
OCCNc1nc(Nc2ccc(Cl)c(Cl)c2)nc2ccccc12	4.2 µM	18 µM	16 µM	29.8 µM	3.38 µM	11.9 µM	4.97 µM	17.5 µM	10.3 µM	25.1	3.71 µM	16.5	6.1 µM	20.2 µM	11 µM	23.4 µM	4.02 µM	16.2 µM	10.9 µM	23.5 µM
Cc1cc(N2CCOCC2)nc(N(CCCNc2ccnc3cc(Cl)ccc23)Cc2ccco2)n1	3.77 µM	13.6 µM	2.3 µM	7.95 µM	1.58 µM	3.81 µM	2.47 µM	5.69 µM	2.76 µM	12.7	3.28 µM	13.7	1.67 µM	6.23 µM	2.84 µM	10.7 µM	2.73 µM	11.5 µM	3.49 µM	12.5 µM
N#Cc1c(N)nc(N2CCOCC2)c(C#N)c1-c1ccccn1	> 100 µM	> 100 µM	> 100 µM	> 100 µM	> 100 µM	> 100 µM	> 100 µM	> 100 µM	> 100 µM	> 100	> 100 µM	> 100	> 100 µM	> 100 µM	> 85.9 µM	> 100 µM	> 100 µM	> 100 µM	0.0342 µM	0.482 µM
CC(=O)c1c(CO[N+](=O)[O-])n([O-])c2ccccc2[n+]1=O		> 100 µM		> 100 µM		> 100 µM		> 100 µM		> 100		> 100		> 100 µM		> 100 µM		> 100 µM		> 100 µM
CCCN(CCC)c1ccc(/C=N/NC(=O)c2cccnc2)c(OC)c1	26.6 µM	> 100 µM	28.4 µM	84.8 µM	23.6 µM	> 100 µM	18.8 µM	50.4 µM	26.1 µM	> 100	24.1 µM	75.4	19 µM	77.8 µM	21.6 µM	71.3 µM	24.5 µM	> 100 µM	16.2 µM	45.6 µM
C/C(=C\c1cc(C(F)(F)F)n(-c2ccc(N)cc2)n1)[C@@H]1C[C@@H]2O[C@]2(C)CCC[C@H](C)[C@H](O)[C@@H](C)C(=O)C(C)(C)[C@@H](O)CC(=O)O1	0.0489 µM	> 11.1 µM	0.065 µM	3.44 µM	0.0312 µM	> 11.1 µM	0.089 µM	> 11.1 µM	0.0829 µM	> 11.1	0.00733 µM	> 5.06	0.0369 µM	1.39 µM	0.0575 µM	> 11.1 µM	0.00554 µM	> 11.1 µM	0.0245 µM	> 6.85 µM
COc1cc(-c2csc(NC(=O)Nc3ccc(C(F)(F)F)cc3)n2)cc(OC)c1OC	2.74 µM	11.7 µM	2.22 µM	6.94 µM	1.59 µM	3.15 µM	1.85 µM	4.94 µM	2.48 µM	8.81	2.52 µM	7.01	1.66 µM	4.35 µM	2.68 µM	8.33 µM	2.19 µM	5.3 µM	1.99 µM	5.38 µM
O=C(N/N=C/c1ccc(O)cc1O)c1cccc(Nc2ccnc(C(F)(F)F)c2)c1	6.44 µM	> 72 µM	1.45 µM	50.8 µM	0.501 µM	12.5 µM	1.32 µM	11.5 µM	3.8 µM	27.4	3.06 µM	11.3	1.88 µM	45.8 µM	1.22 µM	18.3 µM	4.07 µM	21.4 µM	0.33 µM	7.37 µM
O=C(NO)[C@@H](Cc1ccccc1)NS(=O)(=O)c1ccc(-c2ccccc2)cc1	> 25 µM	> 25 µM	> 25 µM	> 25 µM	11.9 µM	> 25 µM	> 25 µM	> 25 µM	> 25 µM	> 25	13.6 µM	> 25	> 25 µM	> 25 µM	> 25 µM	> 25 µM	21.2 µM	> 25 µM	> 25 µM	> 25 µM
NS(=O)(=O)CC1CC[CH-]CC1.[Cl-].[Cl-].[Cl-].[Cl-].[Cl-].[Sb+5].c1ccncc1	> 100 µM	> 100 µM	> 100 µM	> 100 µM	> 100 µM	> 100 µM	> 100 µM	> 100 µM	> 100 µM	> 100	> 100 µM	> 100	> 100 µM	> 100 µM	> 100 µM	> 100 µM	> 100 µM	> 100 µM	> 100 µM	> 100 µM
COc1cc2nccc(Oc3ccc(NC(=O)Nc4cc(C)on4)c(Cl)c3)c2cc1OC	3.15 µM and 4.31 µM	19.1 µM and > 10 µM	4.16 µM and 4.99 µM	13.4 µM and > 10 µM	2.21 µM and 2.19 µM	8.14 µM and > 10 µM	1.92 µM and 6.17 µM	8.17 µM and > 10 µM	2.97 µM and 3.07 µM	> 100	3.41 µM and 4.31 µM	> 70.4	2.08 µM and 3.08 µM	14 µM and > 10 µM	4.16 µM and 3.57 µM	26.5 µM and > 10 µM	3.11 µM and 4.09 µM	18.4 µM and > 10 µM	2.12 µM and 1.82 µM	16.4 µM and > 10 µM
